{"source": "patent US8710182B2", "about": "“Rapid glycopeptide optimization via neoglycosylation” (Wisconsin Alumni Research Foundation, priority 2006, dated 2014)", "system": "VRE", "conditions": "preliminary testing", "data": [{"substance": "2′-N-acyldecanoyl-glucosyl vancomycin neoglycoside [compound 5]", "values": [{"measurement": "activity against VRE", "result": "significant activity"}]}]}
